Earlier results, collected in patent US20080131492A1, “Dosage forms for movement disorder treatment” (Spherics, Inc., priority 2006, published 2008).

Conditions: doses of 400 mg per day

For `C[C@@](Cc1ccc(O)c(O)c1)(NN)C(=O)O` [carbidopa], which adverse effects is on record?
Its adverse effects is “fails to elicit adverse effects”.
